Data: patent publication US10961526B2, “Transformant, and method for producing protocatechuic acid or salt thereof using same” (RESEARCH INSTITUTE OF INNOVATIVE TECHNOLOGY FOR THE EARTH, priority 2016, dated 2021)

Key:
Assay type in all cases: cell-based
[1] = test system: Escherichia coli strain K12; test: Inhibition by protocatechuic acid of growth in aerobic culture (OD610); conditions: LB-liquid medium, aerobic shaking culture 37° C.
Text: (§1) In a case where a product that has cytotoxicity, such as protocatechuic acid, is produced by the fermentation process using microorganisms, it is important that a host microorganism has resistance against the product, that is, hardly suffers from growth inhibition by the product. Then, for studying the degree of resistance against protocatechuic acid of Corynebacterium glutamicum, which is preferable as a host microorganism in the present invention, in comparison with other microorganisms, studies were made on the inhibition by protocatechuic acid of the growth of Corynebacterium glutamicum, Escherichia coli, Bacillus subtilis, Pseudomonas putida, Rhodococcus erythropolis, and Saccharomyces cerevisiae in aerobic culture.
(§2) Further, Escherichia coli strain K12, Bacillus subtilis strain NBRC14144, Pseudomonas putida strain ATCC700801, and Rhodococcus erythropolis strain ATCC27854 were applied to LB-agar plate [containing 1% polypeptone, 0.5% yeast extract, 0.5% sodium chloride, and 1.5% agar]. Escherichia coli strain K12 and Bacillus subtilis strain NBRC14144 were cultured at 37° C. for 16 hours, while Pseudomonas putida strain ATCC700801 and Rhodococcus erythropolis strain ATCC27854 were cultured at 30° C. for 16 hours. Each strain grown on the plate described above was inoculated in 10 ml of LB-liquid medium [1% polypeptone, 0.5% yeast extract, and 0.5% sodium chloride]. Escherichia coli strain K12 and Bacillus subtilis strain NBRC14144 were subjected to aerobic shaking culture at 37° C. for 16 hours, while Pseudomonas putida strain ATCC700801 and Rhodococcus erythropolis strain ATCC27854 were subjected to aerobic shaking culture at 30° C. for 16 hours. Each strain grown under the above-described conditions was inoculated in 10 ml of the LB-liquid medium so that the initial bacterial cell concentration OD610=0.1, and simultaneously protocatechuic acid was added so that the final concentrations were 0, 25, 50, 100, 250, 500 mM. Escherichia coli strain K12 and Bacillus subtilis strain NBRC14144 were subjected to aerobic shaking culture at 37° C., while Pseudomonas putida strain ATCC700801 and Rhodococcus erythropolis strain ATCC27854 was subjected aerobic shaking culture at 30° C. The growth of bacterial cells was determined by measuring OD610.
(§3) How the addition of protocatechuic acid to medium influenced aerobic growth of each strain was analyzed, and the results are shown in FIG. 2.

[2] = test system: Pseudomonas putida strain ATCC700801; test: as above; conditions: LB-liquid medium, aerobic shaking culture 30° C.
Text: as §1, §2, §3

[3] = test system: Bacillus subtilis strain NBRC14144; test: as above; conditions: LB-liquid medium, aerobic shaking culture 37° C.
Text: as §1, §2, §3

[4] = test system: Rhodococcus erythropolis strain ATCC27854; test: as above; conditions: LB-liquid medium, aerobic shaking culture 30° C.
Text: as §1, §2, §3

[5] = test system: Corynebacterium glutamicum strain R; test: as above
Text: as §1
Corynebacterium glutamicum strain R was applied to an A-agar plate [obtained by dissolving the following in distilled water 1 L: (NH2)2CO 2 g, (NH4)2SO4 7 g, KH2PO4 0.5 g, K2HPO4 0.5 g, MgSO4.7H2O 0.5 g, 0.06% (w/v) Fe2SO4.7H2O+0.042% (w/v) MnSO4.2H2O 1 ml, 0.02% (w/v) biotin solution 1 ml, 0.01% (w/v) thiamine solution 2 ml, yeast extract 2 g, vitamin assay casamino acid 7 g, agar 20 g] containing glucose at 4%, and was cultured at 33° C. for 16 hours. […] The growth of bacterial cells was determined by measuring OD610.
as §3

[6] = test system: Corynebacterium glutamicum strain R; test: Glucose consumption under presence of high concentration of protocatechuic acid; conditions: high concentration of protocatechuic acid (0, 50, 250, 500 mM), 24-hour culture, 33° C.
Protocol: As indicated in Reference Example 1, Corynebacterium glutamicum was able to grow even under the presence of a high concentration of protocatechuic acid. Then, a glucose consumption ability of Corynebacterium glutamicum under the presence of a high concentration of protocatechuic acid was further studied in the following manner.
Corynebacterium glutamicum strain R was applied to the above-described A-agar plate containing glucose 4%, and was cultured at 33° C. for 16 hours. One platinum loop of Corynebacterium glutamicum strain R grown on the above-described plate was inoculated in a test tube having therein 10 ml of the above-described A-liquid medium containing glucose 4%, and was subjected to aerobic shaking culture at 33° C. for 16 hours. Corynebacterium glutamicum strain R grown under the above-described conditions was inoculated in 10 ml of the above-described A-liquid medium containing glucose 4% so that the initial bacterial cell concentration OD610=0.2. Simultaneously, protocatechuic acid was added so that the final concentrations thereof became 0, 50, 250, 500 mM, and aerobic shaking culture was carried out at 33° C. After 24-hour culture, culture solutions were collected, and centrifuged (4° C., 15,000×g, 5 minutes). Concentrations of glucose in the supernatants obtained were measured by a glucose sensor in the same manner as Example 2 to be described below. […]

[7] = test system: Saccharomyces cerevisiae strain NBRC2376; test: Inhibition by protocatechuic acid of growth in aerobic culture (OD610); conditions: YPD liquid medium, aerobic shaking culture 30° C.
Text: as §1
Further, Saccharomyces cerevisiae strain NBRC2376 was applied to YPD agar plate [2% polypeptone, 1% yeast extract, 2% glucose, and 1.5% agar], and was cultured at 30° C. for 16 hours. Saccharomyces cerevisiae strain NBRC2376 on the plate described above was inoculated in YPD liquid medium [2% polypeptone, 1% yeast extract, and 2% glucose], and was subjected to aerobic shaking culture at 30° C. for 16 hours. […] The growth of bacterial cells was determined by measuring OD610.
as §3

In the case of O=C(O)c1ccc(O)c(O)c1 [protocatechuic acid], the “growth of Escherichia coli strain K12” value ([1]; 100 mM protocatechuic acid) is reported as “significantly inhibited”, the “growth of Escherichia coli strain K12” value ([1]; 250 mM protocatechuic acid) is reported as “substantially completely inhibited” and the “growth of Pseudomonas putida strain ATCC700801” value ([2]; 100 mM protocatechuic acid) is reported as “strongly inhibited”. For the same compound, the “growth of Pseudomonas putida strain ATCC700801” value ([2]; 250 mM protocatechuic acid) was “substantially completely inhibited”, the “growth of Bacillus subtilis strain NBRC14144” value ([3]; 250 mM protocatechuic acid) was “significantly inhibited” and the “growth of Bacillus subtilis strain NBRC14144” value ([3]; 500 mM protocatechuic acid) was “substantially completely inhibited”. The “growth of Rhodococcus erythropolis strain ATCC27854” value ([4]; 250 mM protocatechuic acid) was “strongly inhibited”, the “growth of Rhodococcus erythropolis strain ATCC27854” value ([4]; 500 mM protocatechuic acid) was “substantially completely inhibited” and the “growth capacity of Corynebacterium glutamicum” value ([5]; 500 mM protocatechuic acid) was “robust growth capacity”. The “growth of Corynebacterium glutamicum strain R” value ([5]; 250 to 500 mM of protocatechuic acid, A-liquid medium with glucose 4%, aerobic shaking culture 33° C.) was “robust growth”, the “decrease in the saccharide consumption by Corynebacterium glutamicum” value [6] was “small” and the “growth of Saccharomyces cerevisiae strain NBRC2376” value ([7]; 250 mM protocatechuic acid) was “inhibited”. The “growth of Saccharomyces cerevisiae strain NBRC2376” value ([7]; 500 mM protocatechuic acid) was “significantly inhibited”.
